Results from patent US20100055169A1, “CATIONIC LIPIDS AND USES THEREOF” (ABBOTT LABORATORIES, priority 2008, published 2010).

Columns and labels:
Type in all cases: physicochemical
Settings in all cases: lipid:siRNA 25:1
[1] = RiboGreen assay of siRNA encapsulation efficiency, in vivo formulations of Lipid-Based Particles
Description: (§1) RNA concentration and encapsulation efficiency were determined using a Quant-iT® Ribogreen RNA reagent and kit available from Invitrogen. The siRNA was released from the Lipid-Based Particle using one of the following reagents: ethanol, Triton X-100, or phenol/chloroform. The siRNA concentration is quantified using fluorescent reading at 480 nm/520 nm.
The lipid solution was prepared (10 mg/ml) by dissolving the lipid in 200 proof ethanol. The lipid mixture solution is prepared according to the above composition in Table 5.
An siRNA (TetR_ODC—12, G.G.G.G.A.A.A.G.C.U.G.G.C.A.A.G.A.U.U.U.U SEQ ID NO: 1) (ThermoFisher) solution is prepared in a concentration of 10 mg/ml by dissolving 10 mg siRNA in 1 ml of DNAse/RNAse-free distilled water.
(§2) A round bottom flask was submerged into a 65° C. water bath. Citrate buffer (37.5 ml) of pH 4.0 was pipetted into the flask. The solution was stirred by a magnetic stirring bar at a speed of 900 rpm. Both the pH 4.0 citrate buffer and the lipid solution were pre-warmed in the 65° C. water bath for about 3 minutes. A siRNA solution (0.5 ml) was pipetted into the pH 4.0 citrate buffer. The 12.5 ml lipid mixture solution was injected through a 27 gauge needle into the citrate buffer in about 30 seconds. The needle tip was inserted into the solution during the injection. The resulting solution was stirred for 5 minutes at a speed of 900 rpm. The flask was pulled up from the water bath and a 50 ml pH 7.4 PBS buffer was added into the flask. The final solution was further mixed at a speed of 900 rpm for 5 minutes. For the diafiltration process, a dialysis filter (Millipore, 100K, Cat#PXB100C50) was used to remove ethanol in the above solution. When the volume was reduced to 20 ml during the initial diafiltration, 20 ml of pH 7.4 PBS was added to the sample solution. The diafiltration was continued until the volume was reduced to 20 ml. The diafiltration process was repeated 4 times. The volume of the sample solution was reduced to about 12 ml and pH 7.4 PBS was added to make the final volume of 15 ml. The 15 ml solution was filtered sequentially through the 0.45 and 0.22 μm sterile PVDF membrane filters (Millipore) and immediately transferred into a sterile vial.

[2] = Particle sizing assay (Zetasizer Nano ZS), in vivo formulations
Description: as §2
For measurements of particle sizes and size distributions (PDI), lipid-based particles were prepared as described above. The particle solution (60 μL) was pipetted into a disposable cuvette (UVette, Eppendorf, cat#952010051) and measured in the “General Purpose” mode. Attenuator and position were optimized by the device. Measurements were performed using a Zetasizer Nano ZS (Malvern Instruments) equipped with a 4 mW He—Ne laser at a wavelength of 633 nm at 25° C. Scattered light was detected at a 173° backward scattering angle. The viscosity and refractive index of water at 25° C. was used for data analysis with the Dispersion Technology Software 5.00 (Malvern Instruments).

[3] = RiboGreen assay of siRNA encapsulation efficiency, in vitro formulations of Lipid-Based Particles
Description: The mixing solution of cationic lipids, cholesterol, non-cationic lipids and PEG-lipids was prepared in ethanol (total concentration at 10 mg/mL). siSTABLE (purchased from ThermoFisher) (sense-5′ GGGGAAAGCUGGCAAGAUUUU-3′SEQ ID NO. 1, antisense-5′-AAUCUUGCCAGCUUUCCCCUU-3′ SEQ ID NO: 2) % stock solution was prepared in 10 mg/mL of solution by dissolving 10 mg siRNA in 1 mL of RNAse-free UltraPure Water. The calculated amount of siRNA solution was added to 1 mL of citrate buffer (pH 4.0, 20 mM), to provide an siRNA concentration of 0.2 mg/mL, and warmed to 60 C. The calculated amount of lipid solution was warmed to 60 C, transferred to a 0.5 mL syringe with 28½ gauge needle, and injected into the citrate buffer with stirring at 60 C. After 3 minutes, 3 mL of PBS solution at room temperature (pH 7.4) was added into the lipid mixture with stirring. The Lipid-Based Particle solution was cooled to room temperature.
(§3) The siRNA concentrations were measured using Quanti-iT RiboGreen RNA reagent (Molecular Probes, (R11490)). Vesicle sizes were characterized by dynamic light scattering with a DynaPro™ Plate Reader (Wyatt Technology) in 96-well half-area UV plate (Coring) after diluting the formulation sample (20 μL) in phosphate buffered saline (80 μL) at a pH of about 7-8. A 1% agarose gel-based assay was used for analyzing nuclease degradation and protection. Encapsulation efficiency (EE) was calculated using data obtained from a RiboGreen assay.
as §1

[4] = Particle sizing by dynamic light scattering (DynaPro plate reader), in vitro formulations
Description: as §3
Particle sizes and size distributions (PDI) were characterized by using dynamic light scattering (DLS). A DLS plate reader (Dynapro™, Wyatt Technology) was used for the DLS measurement. This DLS plate reader uses an 830 nm laser and the scattering angle is 158°. It also can control temperature from 4° C. to 70° C. A 96-well format was employed for the samples.
Samples for DLS analysis were prepared by mixing 20 μL of each sample stock solution with 80 μL PBS directly in the 96-well plate (#3697, Corning). Sample mixing was accomplished using a microplate shaker (Orbis, Mikura Ltd.). Plates were read at 20° C. with an acquisition time of 50 seconds for each sample, and data was analyzed with Wyatt Technology's Dynamics V6 software. To rule out potential multiple scattering artifacts, a second plate at 4-fold reduced sample concentrations was independently prepared by mixing 5 μL stock solutions with 95 μL PBS. Under our experimental conditions the results at the two concentrations were very similar, and the final reported result for each sample represents the average of values obtained from the two plates.

[5] = in vivo formulation A: Cationic lipid/Example 73/DSPC/Chol 45/10/15/30 wt %
[6] = in vitro formulation a: Cationic lipid/Example 73/DSPC/Chol 45/10/15/30 wt %
[7] = in vitro formulation b: Cationic lipid/PEG-cholesterol/DSPC/Chol 45/10/15/30 wt %
[8] = in vivo formulation I: Cationic lipid/PEG-DPPE/DSPC/Chol 45/10/15/30 wt %
[9] = in vivo formulation J: Cationic lipid/PEG-DSPE/DSPC/Chol 45/10/15/30 wt %
[10] = in vivo formulation L: Cationic lipid/PEG-DPG/DSPC/Chol 45/10/15/30 wt %

CCCCC/C=C\C/C=C\CCCCCCCCOCC(CCN1CCOCC1)OCCCCCCCC/C=C\C/C=C\CCCCC (stereo not drawn) [Example 2, 4-{3,4-bis[(9Z,12Z)-octadeca-9,12-dienyloxy]butyl}morpholine]
% Encapsulation Efficiency [1, 5]: 83.6% | Size [2, 5]: 89 nm | Size distribution (PDI) [2, 5]: (0.1)

CCCCC/C=C\C/C=C\CCCCCCCCOCC(CCN(CC)CC)OCCCCCCCC/C=C\C/C=C\CCCCC (stereo not drawn) [Example 3, N,N-diethyl-3,4-bis[(9Z,12Z)-octadeca-9,12-dienyloxy]butan-1-amine]
% Encapsulation Efficiency [3, 6]: 97.2% | % Encapsulation Efficiency [3, 7]: 96.9% | Size [4, 6]: 192 nm | Size [4, 7]: 113.4 nm | Size [2, 5]: 116 nm | Size distribution (PDI) [2, 5]: (0.12)

CCCCC/C=C\C/C=C\CCCCCCCCOCC(CCN(C)C)OCCCCCCCC/C=C\C/C=C\CCCCC (stereo not drawn) [Example 4, N,N-dimethyl-3,4-bis[(9Z,12Z)-octadeca-9,12-dienyloxy]butan-1-amine]
% Encapsulation Efficiency [3, 7]: 97.5% | Size [4, 7]: 136.6 nm

CCCCC/C=C\C/C=C\CCCCCCCCOCC(CCN1CCN(c2ccccc2)CC1)OCCCCCCCC/C=C\C/C=C\CCCCC (stereo not drawn) [Example 5, 1-{3,4-bis[(9Z,12Z)-octadeca-9,12-dienyloxy]butyl}-4-phenylpiperazine]
Size [4, 6]: 157 nm | Size distribution (PDI) [4, 6]: 0.070

CCCCC/C=C\C/C=C\CCCCCCCCOCC(CCN1CCN(C)CC1)OCCCCCCCC/C=C\C/C=C\CCCCC (stereo not drawn) [Example 6, 1-{3,4-bis[(9Z,12Z)-octadeca-9,12-dienyloxy]butyl}-4-methylpiperazine]
Size [4, 6]: 178 nm | Size distribution (PDI) [4, 6]: 0.16

CCCCC/C=C\C/C=C\CCCCCCCCOCC(CCN1CCN(c2ccccc2OC)CC1)OCCCCCCCC/C=C\C/C=C\CCCCC (stereo not drawn) [Example 8, 1-{3,4-bis[(9Z,12Z)-octadeca-9,12-dienyloxy]butyl}-4-(2-methoxyphenyl)piperazine]
Size [4, 6]: 130 nm

CCCCC/C=C\C/C=C\CCCCCCCCOCC(CCN(C)CCc1ccccn1)OCCCCCCCC/C=C\C/C=C\CCCCC (stereo not drawn) [Example 10, N-{3,4-bis[(9Z,12Z)-octadeca-9,12-dienyloxy]butyl}-N-methyl-N-(2-pyridin-2-ylethyl)amine]
Size [4, 6]: 161 nm | Size distribution (PDI) [4, 6]: 0.168

CCCCC/C=C\C/C=C\CCCCCCCCOCC(CCN(C)Cc1ccccc1)OCCCCCCCC/C=C\C/C=C\CCCCC (stereo not drawn) [Example 11, N-benzyl-N-{3,4-bis[(9Z,12Z)-octadeca-9,12-dienyloxy]butyl}-N-methylamine]
Size [4, 6]: 154 nm | Size distribution (PDI) [4, 6]: 0.2

CCCCC/C=C\C/C=C\CCCCCCCCOCC(CCN1CCC(N(C)C)CC1)OCCCCCCCC/C=C\C/C=C\CCCCC (stereo not drawn) [Example 16, 1-{3,4-bis[(9Z,12Z)-octadeca-9,12-dienyloxy]butyl}-N,N-dimethylpiperidin-4-amine]
Size [4, 6]: 70.9 nm

CCCCC/C=C\C/C=C\CCCCCCCCOCC(CCN(CCOC)CCOC)OCCCCCCCC/C=C\C/C=C\CCCCC (stereo not drawn) [Example 18, N,N-bis(2-methoxyethyl)-3,4-bis [(9Z,12Z)-octadeca-9,12-dienyloxy]butan-1-amine]
% Encapsulation Efficiency [3, 6]: 94.1% | Size [4, 6]: 104 nm

CCCCC/C=C\C/C=C\CCCCCCCCOCC(CCN1CCC(OC)CC1)OCCCCCCCC/C=C\C/C=C\CCCCC (stereo not drawn) [Example 19, 1-{3,4-bis[(9Z,12Z)-octadeca-9,12-dienyloxy]butyl}-4-methoxypiperidine]
% Encapsulation Efficiency [3, 6]: 94.2% | Size [4, 6]: 152 nm

CCCCC/C=C\C/C=C\CCCCCCCCOC[C@@H](CCN1CCCC1)OCCCCCCCC/C=C\C/C=C\CCCCC [Example 20, 1-{(3R)-3,4-bis[(9Z,12Z)-octadeca-9,12-dienyloxy]butyl}pyrrolidine]
% Encapsulation Efficiency [3, 6]: 97.2% | Size [4, 6]: 146 nm | Size [2, 5]: 100 nm | Size distribution (PDI) [2, 5]: (0.09)

CCCCC/C=C\C/C=C\CCCCCCCCOC[C@H](CCN1CCCC1)OCCCCCCCC/C=C\C/C=C\CCCCC [Example 21, 1-{(3S)-3,4-bis[(9Z,12Z)-octadeca-9,12-dienyloxy]butyl}pyrrolidine]
% Encapsulation Efficiency [3, 6]: 96.9% | Size [4, 6]: 128 nm | Size [2, 5]: 103 nm | Size distribution (PDI) [2, 5]: (0.06)

CCCCC/C=C\C/C=C\CCCCCCCCOC[C@@H](CCN(CC)CC)OCCCCCCCC/C=C\C/C=C\CCCCC [Example 22, N-{(3R)-3,4-bis[(9Z,12Z)-octadeca-9,12-dienyloxy]butyl}-N,N-diethylamine]
% Encapsulation Efficiency [3, 6]: 86% | Size [4, 6]: 130 nm

CCCCC/C=C\C/C=C\CCCCCCCCOC[C@H](CCN(CC)CC)OCCCCCCCC/C=C\C/C=C\CCCCC [Example 23, N-{(3S)-3,4-bis[(9Z,12Z)-octadeca-9,12-dienyloxy]butyl}-N,N-diethylamine]
% Encapsulation Efficiency [3, 6]: 97.2% | Size [4, 6]: 128 nm

CCCCC/C=C\C/C=C\CCCCCCCCOCC(CCOCCN1CCN(C)CC1)OCCCCCCCC/C=C\C/C=C\CCCCC (stereo not drawn) [Example 28, 1-(2-{3,4-bis[(9Z,12Z)-octadeca-9,12-dienyloxy]butoxy}ethyl)-4-methylpiperazine]
% Encapsulation Efficiency [3, 7]: 94.3% | % Encapsulation Efficiency [1, 8]: 99% | % Encapsulation Efficiency [1, 9]: 99% | % Encapsulation Efficiency [1, 10]: 99% | Size [2, 8]: 107.1 nm | Size distribution (PDI) [2, 8]: (0.025) | Size [2, 9]: 80.2 nm | Size distribution (PDI) [2, 9]: (0.026) | Size [2, 10]: 87 nm | Size distribution (PDI) [2, 10]: (0.012)

CCCCC/C=C\C/C=C\CCCCCCCCOCC(CCOCCN1CCCC1)OCCCCCCCC/C=C\C/C=C\CCCCC (stereo not drawn) [Example 31, 1-(2-{3,4-bis[(9Z,12Z)-octadeca-9,12-dienyloxy]butoxy}ethyl)pyrrolidine]
% Encapsulation Efficiency [3, 7]: 96.2% | % Encapsulation Efficiency [1, 5]: 93.3% | Size [2, 5]: 136 nm | Size distribution (PDI) [2, 5]: (0.0923)
